Laboratory results published in a melting point compilation (Tetko et al.).

| SMILES | melting point [°C] |
| --- | --- |
| Nc1c(F)c(F)c(-c2c(F)c(F)c(N)c(F)c2F)c(F)c1F | 175 to 179 |
| CC(=O)OCC(=O)C1(OC(C)=O)CCC2(C)C(CCC3C4CCC(=O)C4(C)CCC32)C1 (stereo not given) | 141 |
| NC(=S)c1cccc2c1OCCO2 | 106 to 109 |
| COc1cccc(C(=O)NN(C(=O)c2cc(C)cc(C)c2)C(C)(C)C)c1C | 204 |
| CC(O)C1CCC2C3CCC4CC(O)CCC4(C)C3CCC12C (stereo not given) | 245 |
| NC(=O)CN1CCCC1=O | 152 |
| Cc1ccc(N(SC(F)(Cl)Cl)S(=O)(=O)N(C)C)cc1 | 96 |
| Cc1cc2ccccc2cc1CCl | 65 |
| C=CC(C)Cl (stereo not given) | -50 |
| Cc1cc2c(s1)=Nc1ccccc1NC=2N1CCN(C)CC1 | 195 |
| CSc1nc2cc(N=Cc3ccc4c(c3)OCO4)ccc2[nH]1 | 213 to 215 |
| N#CCNCC#N | 77 |
| OCc1cc(F)cc2c1OCOC2 | 73.2 to 73.9 |
| CC(=O)OC1CC2(O)C(CCC3(C)C(c4ccc(=O)oc4)CCC32O)C2(C)CCC(OC3OC(CO)C(O)C(O)C3O)C=C12 (stereo not given) | 169 |
| ClCc1nc(-c2ccccc2)no1 | 42 |
| OCc1cc(C(F)(F)F)cc(C(F)(F)F)c1 | 54 |
| O=Cc1ccc(OCc2ccccc2F)cc1 | 54 to 57 |
| O=C1c2ccccc2C(=O)N1c1ccccc1 | 210 |
| CC(=O)OC1CC[C@H]2[C@@H]3CCC4CC(=O)CC[C@]4(C)[C@H]3CC[C@]12C (stereo not given in full) | 146 |
| OC(c1ccc(F)cc1)(c1ccc(F)cc1)c1ccc(F)cc1 | 92 |
| O=C1OC(=O)c2c(I)c(I)c(I)c(I)c21 | 328 |
| C[Si](C)(Cl)C(Cl)Cl | -48 |
| O=C(O)CCP(=O)(O)O | 165 to 166 |
| CCP(=O)(CC)CC | 52 to 53 |
| Cc1c(CN2CCOC(c3ccccc3)C2C)c(=O)n(-c2ccccc2)n1C (stereo not given) | 149 |

Next, values leading:

| melting point [°C] | SMILES |
| --- | --- |
| 300 | Nc1cccc(S(=O)(=O)O)c1 |
| 240 | Cc1ccc2nc(O)cc(C)c2c1 |
| -27.5 | C=CCCCCCCCCC(=O)OC |
| 67 | CC(C)(C)OC(=O)NC1CCNC1 (stereo not given) |
| 164 | Cc1ccc(C)c(CNC2=CC(=O)c3ccccc3C2=O)c1 |
| 99 to 100 | CCOC(=O)c1c(-c2ccccc2)csc1NC(=O)CCl |
| 93 to 96 | COC(=O)c1csc(S(=O)(=O)Cl)c1OC |
| 110 | COc1cc(N)c(Cl)cc1C(=O)NC1CCN(CCCOc2ccc(F)cc2)CC1OC (stereo not given) |
| 212 to 214 | COc1ccccc1N1CCN(C(=O)c2ccc(N)cc2)CC1 |
| 151 | CN(C)C(=O)Nc1ccc(Oc2ccc(Cl)cc2)cc1 |
| 157 | CC(=O)/N=c1\sc(C(C)=O)nn1-c1ccc(F)cc1 |
| 49 | COC(=O)C=Cc1cccs1 |
| 192 to 195 | CC(=O)/C=C/c1ccc([N+](=O)[O-])o1 |
| 29 to 32 | CCCCOc1ccc(CO)cc1 |
| 202 | CCOC(=O)c1ncn2c1CN(C)C(=O)c1cc(F)ccc1-2 |
| 187 | CC(C)(C(N)=O)n1nnc2ccccc21 |
| 181 | Cc1cccnc1NC(=O)C(C(F)(F)F)C(F)(F)F |
| 240 | NC(C(=O)O)c1ccc(O)cc1 (stereo not given) |
| 71 to 73 | CCOC(=O)c1cc(C(=O)CBr)on1 |
| 231 | Cc1cc(C)c(NC(N)=S)c(C)c1 |
| 98 to 100 | CC(C)c1ccccc1OS(=O)(=O)c1ccc([N+](=O)[O-])cc1 |
| -24.1 | CCOC(=O)CCCC(=O)OCC |
| 211 to 213 | C/C(=N/NC(N)=S)C(=O)Nc1ccccc1 |
| 132 | COc1cc(N=Nc2c(Br)cc([N+](=O)[O-])cc2[N+](=O)[O-])c(NC(C)=O)c(N(CCOC(C)=O)CCOC(C)=O)c1 |
| 80 | COC(=O)c1scc(Br)c1O |
